Patent US20230146395A1, “Substituted Pyrimidines and Uses Thereof” (Verge Analytics, Inc., priority 2020, published 2023)
Where a name gives a salt, the structure may show the parent alone.

Columns and labels:
[1] = target: T1, Full length human recombinant PIKFYVE (Homo sapiens, UniProt Q9Y2I7); test: Inhibition of PIKfyve (microfluidic electrophoresis kinase assay, PI3P/PS substrate); assay type: biochemical; settings: 12 concentrations
T1 construct: Full length human recombinant PIKFYVE; purchased Carna Biosciences (Kobe, Japan); host or cells: baculovirus expression system
Procedure, shortened: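 GST-tagged full-length human PIKFYVE (baculovirus; 2 nM) with fluorescent PI3P/PS (1 μM PI3P) and […] in pH 7.5 HEPES with Mg2+/Mn2+, 1% DMSO, 3 h at room temperature. PI(3,5)P product/substrate ratio read by microfluidic electrophoresis; 12-point % inhibition versus no-enzyme and DMSO controls.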

[2] = test system: ALS patient (SOD1 A4V) iPSC derived motor neurons; test: iPSC MN Survival assay (GFP imaging, six days, hazard ratio from Cox regression); assay type: cell-based; settings: Homo sapiens, survival rescue, read-out: C9 iPSC MN Significant survival rescue EC50
PI3Kδ = target: T2, PI3Kδ (Homo sapiens, UniProt O00329); test: Inhibition of PI3K isoforms: PI3Kδ (microfluidic electrophoresis kinase assay, PIP2/PS substrate); assay type: biochemical; settings: p110δ/p85α, ATP 90 μM; read-out: PI3Kd IC50
T2 construct: Full-length N-terminal; GST (N); host or cells: SF9 cells (baculovirus)
Experimental: The kinase substrate was prepared by mixing and sonicating fluorescently-labeled phosphatidylinositol 4,5-phosphate (PIP2) with phospho-L-[…]:20 ratio in 50 mM HEPES buffer pH7.5. The kinase reactions were assembled in 384-well plates (Greiner) in a total volume of […] as follows. The kinase proteins were pre-diluted in an assay buffer comprising 50 mM HEPES, pH 7.5, 0.012% CHAPS, 1 mM DTT, 10 mM Na3VaO4, 10 mM 3-GP, 3 mM MgCl2, and 40 mM NaCl2, and dispensed into a 384-well plate (10 μL per well). Test compounds were serially pre-diluted in DMSO and added to the protein samples by acoustic dispensing (Labcyte Echo). The concentration of DMSO was equalized to 1% in all samples. All test compounds were tested at 12 concentrations. The control samples (0%-inhibition in the absence of inhibitor, DMSO only) and 100%-inhibition (in the absence of enzyme) were assembled in replicates of four and were used to calculate %-inhibition in the presence of test compounds. The reactions were initiated by addition of 10 μL of the PIP2/PS substrate supplemented with ATP. The final concentration of enzymes was 0.5 nM (PI3Kα), 1 nM (PI3Kβ), 10 nM (PI3Kγ), and 0.25 nM (PI3Kδ). The final concentration of ATP was 90 μM (PI3Kα), 60 μM (PI3Kβ), 100 μM (PI3Kγ), and 90 μM (PI3Kδ). The final concentration of PIP2/PS substrate was 1 μM (PIP2). The kinase reactions were allowed to proceed for 3 h at room temperature. Following incubation, the reactions were quenched by addition of 50 μL of termination buffer (100 mM HEPES, pH 7.5, 0.01% Triton X-100, 20 mM EDTA). Terminated plates were analyzed on a microfluidic electrophoresis instrument (Caliper LabChip® 3000, Caliper Life Sciences/Perkin Elmer). The change in the relative fluorescence intensity of the PI(4,5)P substrate and PI(3,4,5)P product peaks was measured. The activity in each test sample was determined as the product to sum ratio (PSR): P/(S+P), where P is the peak height of the product, and S is the peak height of the substrate. Percent inhibition (Pinh) was determined using the following equation: Pinh=(PSR0% inh-PSRcompound)/(PSR0% inh-PSR100% inh)*100 in which PSRcompound is the product/sum ratio in the presence of compound, PSR0% inh is the product/sum ratio in the absence of compound, and the PSR100% inh is the product/sum ratio in the absence of the enzyme. […] (Pinh versus compound concentration) were fitted by a four-parameter sigmoid dose-response model using XLfit software (IDBS).

T1 sequence (Q9Y2I7 whole entry): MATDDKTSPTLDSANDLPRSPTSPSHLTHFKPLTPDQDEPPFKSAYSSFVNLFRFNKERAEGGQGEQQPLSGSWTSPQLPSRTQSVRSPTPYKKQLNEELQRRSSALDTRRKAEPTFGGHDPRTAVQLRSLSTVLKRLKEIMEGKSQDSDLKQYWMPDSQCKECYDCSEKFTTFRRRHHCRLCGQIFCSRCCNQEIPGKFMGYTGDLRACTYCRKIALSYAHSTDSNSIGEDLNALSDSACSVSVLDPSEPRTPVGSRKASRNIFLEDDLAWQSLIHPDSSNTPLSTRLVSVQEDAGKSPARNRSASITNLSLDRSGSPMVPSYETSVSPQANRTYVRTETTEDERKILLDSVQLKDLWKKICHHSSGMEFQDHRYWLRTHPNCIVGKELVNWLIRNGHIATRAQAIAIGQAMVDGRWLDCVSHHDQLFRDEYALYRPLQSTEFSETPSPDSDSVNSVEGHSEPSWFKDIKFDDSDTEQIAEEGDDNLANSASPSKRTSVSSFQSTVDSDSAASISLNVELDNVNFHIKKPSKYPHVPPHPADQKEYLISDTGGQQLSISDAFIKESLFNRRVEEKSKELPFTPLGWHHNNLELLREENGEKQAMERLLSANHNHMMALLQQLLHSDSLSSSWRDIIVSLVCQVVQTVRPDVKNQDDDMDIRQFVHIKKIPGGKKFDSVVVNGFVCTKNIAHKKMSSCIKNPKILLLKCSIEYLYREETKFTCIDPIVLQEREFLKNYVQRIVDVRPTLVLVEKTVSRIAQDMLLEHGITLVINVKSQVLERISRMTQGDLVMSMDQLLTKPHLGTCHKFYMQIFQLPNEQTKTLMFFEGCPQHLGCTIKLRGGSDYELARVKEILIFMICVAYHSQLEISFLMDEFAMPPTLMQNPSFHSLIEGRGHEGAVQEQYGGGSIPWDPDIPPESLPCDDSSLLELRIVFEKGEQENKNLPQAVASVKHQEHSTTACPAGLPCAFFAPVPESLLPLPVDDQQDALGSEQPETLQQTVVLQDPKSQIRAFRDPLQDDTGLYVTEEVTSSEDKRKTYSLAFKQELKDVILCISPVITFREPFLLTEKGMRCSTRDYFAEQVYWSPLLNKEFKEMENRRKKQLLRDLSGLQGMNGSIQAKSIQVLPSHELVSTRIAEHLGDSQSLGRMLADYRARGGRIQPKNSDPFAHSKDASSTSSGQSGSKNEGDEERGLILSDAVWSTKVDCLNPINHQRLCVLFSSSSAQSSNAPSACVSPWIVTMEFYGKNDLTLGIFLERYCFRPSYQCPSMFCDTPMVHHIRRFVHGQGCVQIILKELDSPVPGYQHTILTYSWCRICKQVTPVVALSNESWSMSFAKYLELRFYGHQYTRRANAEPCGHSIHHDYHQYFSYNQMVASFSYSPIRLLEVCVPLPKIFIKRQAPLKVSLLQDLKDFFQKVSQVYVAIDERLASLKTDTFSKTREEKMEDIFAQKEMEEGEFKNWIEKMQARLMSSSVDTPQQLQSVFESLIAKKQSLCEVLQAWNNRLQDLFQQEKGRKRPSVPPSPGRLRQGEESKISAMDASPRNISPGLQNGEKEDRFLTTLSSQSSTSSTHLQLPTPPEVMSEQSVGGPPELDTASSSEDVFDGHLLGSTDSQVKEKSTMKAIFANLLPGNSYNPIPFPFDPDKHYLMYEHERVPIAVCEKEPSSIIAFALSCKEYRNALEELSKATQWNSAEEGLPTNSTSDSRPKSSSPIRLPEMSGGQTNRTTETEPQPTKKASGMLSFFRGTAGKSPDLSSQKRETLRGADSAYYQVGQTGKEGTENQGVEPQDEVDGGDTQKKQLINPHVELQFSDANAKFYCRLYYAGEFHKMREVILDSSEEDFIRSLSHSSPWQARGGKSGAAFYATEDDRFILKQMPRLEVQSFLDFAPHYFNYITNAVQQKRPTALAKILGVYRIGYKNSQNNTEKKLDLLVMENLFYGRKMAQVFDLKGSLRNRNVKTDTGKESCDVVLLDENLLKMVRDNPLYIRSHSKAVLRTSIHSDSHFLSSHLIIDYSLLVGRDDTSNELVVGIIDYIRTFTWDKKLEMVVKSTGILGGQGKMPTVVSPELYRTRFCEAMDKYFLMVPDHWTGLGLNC
T2 sequence (O00329 whole entry, canonical isoform): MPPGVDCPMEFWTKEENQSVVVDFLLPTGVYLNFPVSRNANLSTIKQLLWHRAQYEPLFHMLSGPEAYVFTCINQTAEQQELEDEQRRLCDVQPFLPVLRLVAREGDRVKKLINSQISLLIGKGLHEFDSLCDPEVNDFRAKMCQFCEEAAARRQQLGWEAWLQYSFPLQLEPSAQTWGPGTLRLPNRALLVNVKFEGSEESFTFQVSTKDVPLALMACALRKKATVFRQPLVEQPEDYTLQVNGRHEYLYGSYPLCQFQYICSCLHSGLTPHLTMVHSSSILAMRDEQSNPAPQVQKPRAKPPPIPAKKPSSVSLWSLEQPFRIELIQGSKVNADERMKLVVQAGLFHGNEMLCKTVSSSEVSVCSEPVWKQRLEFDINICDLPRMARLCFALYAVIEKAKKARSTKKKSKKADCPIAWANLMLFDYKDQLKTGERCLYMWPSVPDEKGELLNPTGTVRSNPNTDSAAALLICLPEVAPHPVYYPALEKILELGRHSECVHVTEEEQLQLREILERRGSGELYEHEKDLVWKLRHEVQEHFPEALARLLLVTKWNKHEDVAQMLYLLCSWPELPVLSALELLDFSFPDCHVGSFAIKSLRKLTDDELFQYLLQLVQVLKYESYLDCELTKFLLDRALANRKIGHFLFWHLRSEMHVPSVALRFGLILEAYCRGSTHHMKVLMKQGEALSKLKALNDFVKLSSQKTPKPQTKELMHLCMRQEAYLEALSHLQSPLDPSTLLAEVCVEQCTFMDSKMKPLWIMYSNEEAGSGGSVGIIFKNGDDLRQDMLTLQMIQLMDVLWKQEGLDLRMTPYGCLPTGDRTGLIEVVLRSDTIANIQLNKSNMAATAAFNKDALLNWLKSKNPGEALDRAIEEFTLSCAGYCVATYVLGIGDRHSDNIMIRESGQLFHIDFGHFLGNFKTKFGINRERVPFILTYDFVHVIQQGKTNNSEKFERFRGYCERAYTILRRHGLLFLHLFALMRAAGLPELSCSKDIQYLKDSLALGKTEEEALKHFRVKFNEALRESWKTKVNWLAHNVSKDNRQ
T2 sequence (P27986 whole entry partner, canonical isoform): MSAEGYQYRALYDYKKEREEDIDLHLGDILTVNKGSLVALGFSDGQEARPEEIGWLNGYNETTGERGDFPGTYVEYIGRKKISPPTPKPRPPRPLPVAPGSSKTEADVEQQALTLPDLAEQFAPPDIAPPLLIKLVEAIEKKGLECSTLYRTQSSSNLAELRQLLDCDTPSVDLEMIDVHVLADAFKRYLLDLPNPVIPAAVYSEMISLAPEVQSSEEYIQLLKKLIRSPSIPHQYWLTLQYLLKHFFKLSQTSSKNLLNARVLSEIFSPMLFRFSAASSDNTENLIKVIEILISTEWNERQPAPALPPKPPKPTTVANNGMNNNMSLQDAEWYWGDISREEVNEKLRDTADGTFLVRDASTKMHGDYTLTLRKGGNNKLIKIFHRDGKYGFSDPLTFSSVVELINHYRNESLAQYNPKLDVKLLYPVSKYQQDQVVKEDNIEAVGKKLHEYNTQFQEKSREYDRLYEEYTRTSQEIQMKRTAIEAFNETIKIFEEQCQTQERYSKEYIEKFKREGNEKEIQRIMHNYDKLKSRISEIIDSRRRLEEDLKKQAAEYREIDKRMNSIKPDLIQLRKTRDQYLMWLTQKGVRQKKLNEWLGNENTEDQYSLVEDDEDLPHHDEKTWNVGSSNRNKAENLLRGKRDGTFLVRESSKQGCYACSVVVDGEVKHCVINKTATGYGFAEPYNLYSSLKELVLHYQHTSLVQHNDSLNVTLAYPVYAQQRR

- IC50 [1]: 0.0014 µM
- IC50 (PI3Kδ): 2.71 µM
Structure (SMILES): c1ccc(-c2cc(Nc3nc(N4CCOCC4)c4oc(-c5ccncc5)cc4n3)[nH]n2)cc1 [Compound 1, 4-morpholino-N-(3-phenyl-1H-pyrazol-5-yl)-6-(pyridin-4-yl)furo[3,2-d]pyrimidin-2-amine hydrochloride]
- EC50 [2]: 1 µM
